Data reported in patent US20240335439A1, “USE OF AND METHOD FOR TELAPREVIR IN PREPARATION OF DRUG FOR TREATING AN ISCHEMIA/REPERFUSION INJURY AND CYTOPROTECTIVE DRUG” (THE THIRD XIANGYA HOSPITAL OF CENTRAL SOUTH UNIVERSITY, priority 2021, published 2024).

Experiments:
[1] = test system: Alzheimer's disease mouse models; assay: Alzheimer's disease mouse model (Aβ1-42 into hippocampus), new/old object recognition experiment; format: in vivo, ICR mice; conditions: telaprevir 40 mg/kg intramuscular daily for 17 days; ##P<0.01 vs vehicle group, FIG. 7
Procedure: (§1) Experimental animals: 7-week-old healthy male ICR mice weighing 25-30 g. The experimental animals were raised for one week in an environment with a temperature of 25° C., a relative humidity of 60%, free drinking water, and timed and quantified feeding, and then administered according to the requirements of each experimental group.
Building of an Alzheimer's disease mouse model and drug treatment: Aβ1-42 was purchased from MCE Reagent Company, dissolved in DMSO, diluted with physiological saline to 2 μg/μL, and incubated in an incubator at 37° C. for 7 days to convert the Aβ1-42 into an aggregated state. […]
A learning and memory ability and cognitive function of mice were detected by a Morris water maze experiment and a new/old object recognition experiment.
According to the requirements of the new/old object recognition experiment, the experiment included three stages: an adaptation period, a training period, and a testing period. […] One of the two objects was replaced with another object with a different shape and color (denoted as C), and the time for the experimental mice to probe the two different objects within 10 minutes was recorded. […]

[2] = test system: ischemic stroke rat models; assay: Ischemic stroke rat model (MCAO 2 h, reperfusion 24 h); format: in vivo, SD rats; conditions: telaprevir 60 mg/kg after 2 hours of ischemia and 1 hour of reperfusion
Procedure: as §1, with “Healthy” for “7-week-old healthy”, “SD rats” for “ICR mice”, “250-300” for “25-30”
Method for building an ischemic stroke rat model: A cerebral ischemia/reperfusion rat model was prepared by a middle cerebral artery occlusion (MCAO) method. […]
Rat brain TTC staining and infarct volume measurement: After the rat was anesthetized, the brain was quickly taken out, the olfactory bulb and posterior brain were removed, and five coronal brain slices having a thickness of about 2.0 mm were cut from the antiunion, immediately placed in a 1% TTC solution, incubated at 37° C. in dark for 30 minutes, and then soaked and immobilized in a 10% paraformaldehyde solution. […] The infarct area of each brain slice was measured by ImageJ, and an infarct volume of the whole brain was calculated according to a formula: infarct volume=[(sum of front infarct areas of all slices+sum of back infarct areas of all slices)/2]×the thickness of each slice, that is, a sum of infarct volumes of all brain slices. […]
Neurological function scores of rats were detected and cerebral infarct volumes were measured.

Structure (SMILES): CCC[C@H](NC(=O)[C@@H]1[C@H]2CCC[C@H]2CN1C(=O)[C@@H](NC(=O)[C@@H](NC(=O)c1cnccn1)C1CCCCC1)C(C)(C)C)C(=O)C(=O)NC1CC1 [telaprevir]
- cognitive index, new/old object recognition [1]: significantly increased
- neurological impairment symptoms (Longa neurological function score) of rats ([2]; ##P<0.01 vs I/R, FIG. 2B): significantly improve
- cerebral infarct volume of rats (TTC staining) ([2]; vs I/R, FIG. 2A): significantly decreased
